≈ marks a conversion by molar mass, not a printed value. Calls of active or inactive are those of the source. The rule behind the calls is not given here.

Common to all, as to type: functional
Test [1] relates to Escherichia coli. Kind of test: Antimicrobial activity against Escherichia coli ATCC 25922 assessed as growth inhibition after 24 hr by NCCLS broth dilution method. On the technique in general: Dilution methods test growth across graded concentrations, often in twofold steps.
Test [2] concerns Staphylococcus aureus. Kind of test: Antimicrobial activity against Staphylococcus aureus ATCC 25923 assessed as growth inhibition after 24 hr by NCCLS broth dilution method.
The subject of test [3] is Pseudomonas aeruginosa. Kind of test: Antimicrobial activity against Pseudomonas aeruginosa ATCC 27853 assessed as growth inhibition after 24 hr by NCCLS broth dilution method.
In test [4] the test system is Bacillus subtilis. Kind of test: Antimicrobial activity against Bacillus subtilis ATCC 6633 assessed as growth inhibition after 24 hr by NCCLS broth dilution method.

By MIC is commonly meant the lowest concentration found to suppress growth. As for `O=C(Nc1ccc2ncnc(Sc3nnc(-c4cccnc4)o3)c2c1)NC1CCCCC1`, the MIC result in test [1], in test [2], in test [3] and in test [4] was “inactive” each time. The MIC in test [1] (ATCC 25922, 24 h) is 50 µg/mL (≈ 112 µM); in test [2] (ATCC 25923, 24 h), 25 µg/mL (≈ 55.9 µM); in test [3] (ATCC 27853, 24 h) it was 100 µg/mL (≈ 223 µM); in test [4] (ATCC 6633, 24 h), 50 µg/mL (≈ 112 µM).
